# Measurements published in PubChem BioAssay AID330 (DTP/NCI, 2004).
# Several values for one entry are separate records, joined by “and”; a condition that tells them apart may be missing. Identical values can stand only once. Inconclusive results and toxic doses are left out. Peptide text beside a SMILES is read from it.
# Test system: P388 leukemia ip, CD2F1 mice, survival T/C
# Experiment: NCI In Vivo Anticancer Drug Screen. Data for tumor model P388 Leukemia (intraperitoneal) in CD2F1 (CDF1) mice
# Conditions: endpoint: median survival time, higher = longer survival
# Method in brief: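 Mice carrying the transplanted tumor received test compound or vehicle. Survival was recorded in each group, and the value is the treated-group measurement divided by that of the vehicle-treated control group.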
# [1] = dose: 1.0 mg/kg/injection, schedule: Q04DX003 (ip), vehicle: saline with Tween-80
# [2] = dose: 25.0 mg/kg/injection, schedule: Q01DX009 (ip), vehicle: saline with Tween-80
# [3] = dose: 50.0 mg/kg/injection, schedule: Q01DX009 (ip), vehicle: saline with Tween-80
# [4] = dose: 100.0 mg/kg/injection, schedule: Q01DX009 (ip), vehicle: saline with Tween-80
# [5] = dose: 50.0 mg/kg/injection, schedule: Q01DX005 (ip), vehicle: Klucel (hydroxypropylcellulose) (HPC)
# [6] = dose: 100.0 mg/kg/injection, schedule: Q01DX005 (ip), vehicle: Klucel (hydroxypropylcellulose) (HPC)
# [7] = dose: 200.0 mg/kg/injection, schedule: Q01DX005 (ip), vehicle: Klucel (hydroxypropylcellulose) (HPC)
# [8] = dose: 50.0 mg/kg/injection, schedule: Q01DX009 (ip), vehicle: saline
# [9] = dose: 100.0 mg/kg/injection, schedule: Q01DX009 (ip), vehicle: saline
# [10] = dose: 200.0 mg/kg/injection, schedule: Q01DX009 (ip), vehicle: saline with Tween-80
# [11] = dose: 60.0 mg/kg/injection, schedule: Q01DX005 (ip), vehicle: saline with Tween-80
# [12] = dose: 120.0 mg/kg/injection, schedule: Q01DX005 (ip), vehicle: saline with Tween-80
# [13] = dose: 240.0 mg/kg/injection, schedule: Q01DX005 (ip), vehicle: saline with Tween-80
structure (smiles),measurement,setting,value
CCCCC(=O)N(c1ccc(Nc2c3ccccc3nc3cc([N+](=O)[O-])ccc23)cc1)S(C)(=O)=O,T/C,"dose: 0.07 mg/kg/injection, schedule: Q01DX009 (ip), vehicle: saline with Tween-80",107 % of control
same,T/C,"dose: 0.1 mg/kg/injection, schedule: Q01DX009 (ip), vehicle: saline with Tween-80",107 % of control
same,T/C,"dose: 0.15 mg/kg/injection, schedule: Q01DX009 (ip), vehicle: saline with Tween-80",105 % of control
same,T/C,"dose: 0.23 mg/kg/injection, schedule: Q01DX009 (ip), vehicle: saline with Tween-80",123 % of control
same,T/C,"dose: 0.44 mg/kg/injection, schedule: Q04DX003 (ip), vehicle: saline with Tween-80",112 % of control
same,T/C,"dose: 0.66 mg/kg/injection, schedule: Q04DX003 (ip), vehicle: saline with Tween-80",113 % of control
same,T/C,[1],119 % of control
same,T/C,"dose: 2.5 mg/kg/injection, schedule: Q01DX009 (ip), vehicle: saline with Tween-80",188 % of control
same,T/C,"dose: 4.4 mg/kg/injection, schedule: Q04DX003 (ip), vehicle: saline with Tween-80",154 % of control
same,T/C,"dose: 5.0 mg/kg/injection, schedule: Q01DX009 (ip), vehicle: saline with Tween-80",227 % of control
same,T/C,"dose: 6.6 mg/kg/injection, schedule: Q04DX003 (ip), vehicle: saline with Tween-80",159 % of control
same,T/C,"dose: 9.38 mg/kg/injection, schedule: Q01DX009 (ip), vehicle: saline with Tween-80",227 % of control
same,T/C,"dose: 10.0 mg/kg/injection, schedule: Q01DX009 (ip), vehicle: saline with Tween-80",254 % of control
same,T/C,"dose: 10.0 mg/kg/injection, schedule: Q04DX003 (ip), vehicle: saline with Tween-80",168 % of control
same,T/C,"dose: 10.8 mg/kg/injection, schedule: Q04DX003 (ip), vehicle: water",153 % of control
same,T/C,"dose: 15.0 mg/kg/injection, schedule: Q04DX003 (ip), vehicle: saline with Tween-80",186 % of control
same,T/C,"dose: 18.0 mg/kg/injection, schedule: Q04DX003 (ip), vehicle: water",162 % of control
same,T/C,"dose: 30.0 mg/kg/injection, schedule: Q04DX003 (ip), vehicle: water",180 % of control
same,T/C,"dose: 50.0 mg/kg/injection, schedule: Q04DX003 (ip), vehicle: water",171 % of control
Nc1nc(N)c2cc(CNc3ccc(C(=O)NC(CC(=O)O)C(=O)O)cc3)ccc2n1 (stereo not given),T/C,"dose: 0.13 mg/kg/injection, schedule: Q04DX003 (ip), vehicle: saline with Tween-80",109 % of control
same,T/C,"dose: 0.25 mg/kg/injection, schedule: Q04DX003 (ip), vehicle: saline with Tween-80",113 % of control
same,T/C,"dose: 0.5 mg/kg/injection, schedule: Q01DX009 (ip), vehicle: saline",181 % of control
same,T/C,"dose: 1.0 mg/kg/injection, schedule: Q01DX009 (ip), vehicle: saline",200 % of control
same,T/C,[1],150 % of control
same,T/C,"dose: 1.56 mg/kg/injection, schedule: Q01DX009 (ip), vehicle: saline",222 % of control
same,T/C,"dose: 3.13 mg/kg/injection, schedule: Q01DX009 (ip), vehicle: saline",259 % of control
same,T/C,"dose: 6.25 mg/kg/injection, schedule: Q01DX009 (ip), vehicle: saline",90 % of control
CNCCc1ccc2cc(OC)c(OC)cc2c1,T/C,[2],90 % of control
same,T/C,[3],100 % of control
same,T/C,[4],100 % of control
Cc1ncc(CO)c(C=Nc2ccccc2N=Cc2c(CO)cnc(C)c2O)c1O.[Zn],T/C,[5],104 % of control
same,T/C,[6],105 % of control
same,T/C,[7],101 % of control
C/C(=N\OC(=O)c1c(-c2c(Cl)cccc2Cl)noc1C)c1ccccc1O,T/C,[8],91 % of control
same,T/C,[9],94 % of control
same,T/C,"dose: 200.0 mg/kg/injection, schedule: Q01DX009 (ip), vehicle: saline",93 % of control
O=C1CCC(=O)N1CNCCc1cc(Cl)cc(Cl)c1O,T/C,[3],102 % of control
same,T/C,[4],103 % of control
same,T/C,[10],94 % of control
N/C(Cc1noc2ccc(F)cc12)=N\O,T/C,[8],107 % of control
same,T/C,[9],107 % of control
Cc1csc2nc(-c3ccccc3)c(/C=N/NC(=O)CN(C)C)n12,T/C,[11],110 % of control
same,T/C,[12],103 % of control
same,T/C,[13],99 % of control
Cc1cccc(C(=O)CCN(C)C)c1,T/C,"dose: 12.5 mg/kg/injection, schedule: Q01DX009 (ip), vehicle: saline",94 % of control
same,T/C,"dose: 25.0 mg/kg/injection, schedule: Q01DX009 (ip), vehicle: saline",99 % of control
same,T/C,[8],100 % of control and 101 % of control and 108 % of control
same,T/C,[9],98 % of control
c1ccc2c(c1)CCc1c(-c3ccncc3)n[nH]c1-2,T/C,"dose: 12.5 mg/kg/injection, schedule: Q01DX009 (ip), vehicle: other",108 % of control
same,T/C,"dose: 25.0 mg/kg/injection, schedule: Q01DX009 (ip), vehicle: other",123 % of control
same,T/C,"dose: 50.0 mg/kg/injection, schedule: Q01DX009 (ip), vehicle: other",106 % of control
same,T/C,"dose: 100.0 mg/kg/injection, schedule: Q01DX009 (ip), vehicle: other",104 % of control
same,T/C,"dose: 200.0 mg/kg/injection, schedule: Q01DX009 (ip), vehicle: other",100 % of control
CC(CN=Cc1ccccc1O)N=Cc1ccccc1O.[Zn] (stereo not given),T/C,"dose: 6.25 mg/kg/injection, schedule: Q01DX009 (ip), vehicle: saline with Tween-80",103 % of control
same,T/C,"dose: 12.5 mg/kg/injection, schedule: Q01DX009 (ip), vehicle: saline with Tween-80",111 % of control
same,T/C,[2],93 % of control and 97 % of control
same,T/C,[3],99 % of control
Nc1ccc2c(c1)Oc1ccc(N)cc1O2,T/C,[11],102 % of control
same,T/C,[12],100 % of control
same,T/C,[13],106 % of control
CCCCOC1CCC2(C)C(=CCC3C2CCC2(C)C(C(C)CCCC(C)C)CCC32)C1 (stereo not given),T/C,"dose: 100.0 mg/kg/injection, schedule: Q04DX003 (sc), vehicle: steriod suspending solution",104 % of control
same,T/C,"dose: 200.0 mg/kg/injection, schedule: Q04DX003 (sc), vehicle: steriod suspending solution",100 % of control
same,T/C,"dose: 400.0 mg/kg/injection, schedule: Q04DX003 (sc), vehicle: steriod suspending solution",100 % of control
CC(C)OC(=O)c1ccc(=O)oc1,T/C,"dose: 100.0 mg/kg/injection, schedule: Q04DX003 (ip), vehicle: Klucel (hydroxypropylcellulose) (HPC)",105 % of control
same,T/C,"dose: 200.0 mg/kg/injection, schedule: Q04DX003 (ip), vehicle: Klucel (hydroxypropylcellulose) (HPC)",99 % of control
same,T/C,"dose: 400.0 mg/kg/injection, schedule: Q04DX003 (ip), vehicle: Klucel (hydroxypropylcellulose) (HPC)",110 % of control
CCOC(=O)Cn1ccnc1[N+](=O)[O-],T/C,"dose: 12.5 mg/kg/injection, schedule: Q01DX009 (ip), vehicle: distilled water + Tween-80",102 % of control
same,T/C,"dose: 25.0 mg/kg/injection, schedule: Q01DX009 (ip), vehicle: distilled water + Tween-80",97 % of control
same,T/C,"dose: 50.0 mg/kg/injection, schedule: Q01DX009 (ip), vehicle: distilled water + Tween-80",100 % of control
same,T/C,"dose: 100.0 mg/kg/injection, schedule: Q01DX009 (ip), vehicle: distilled water + Tween-80",102 % of control
same,T/C,"dose: 200.0 mg/kg/injection, schedule: Q01DX009 (ip), vehicle: distilled water + Tween-80",109 % of control
CCn1c(C)nc2c(N)cc(C(F)(F)F)cc21 (tested in a mixture with another compound),T/C,"dose: 30.0 mg/kg/injection, schedule: Q01DX005 (ip), vehicle: Klucel (hydroxypropylcellulose) (HPC)",95 % of control
same,T/C,"dose: 60.0 mg/kg/injection, schedule: Q01DX005 (ip), vehicle: Klucel (hydroxypropylcellulose) (HPC)",100 % of control
same,T/C,"dose: 120.0 mg/kg/injection, schedule: Q01DX005 (ip), vehicle: Klucel (hydroxypropylcellulose) (HPC)",99 % of control
O=C1CCS(=O)(=O)CC1,T/C,[2],108 % of control
same,T/C,[3],103 % of control and 107 % of control
same,T/C,[4],114 % of control and 120 % of control
same,T/C,[10],107 % of control and 123 % of control
same,T/C,"dose: 400.0 mg/kg/injection, schedule: Q01DX009 (ip), vehicle: saline with Tween-80",113 % of control and 120 % of control
same,T/C,"dose: 600.0 mg/kg/injection, schedule: Q01DX009 (ip), vehicle: saline with Tween-80",123 % of control
CCC(C)C(NC(=O)C(Cc1ccccc1)NC(=O)C(N)CSC)C(N)=O (stereo not drawn) (H-Cys(Me)-Phe-Ile-NH2; configuration not given here),T/C,[5],102 % of control
same,T/C,[6],99 % of control
same,T/C,[7],99 % of control
CN(C)/C=C(\C#N)C=O,T/C,"dose: 18.75 mg/kg/injection, schedule: Q01DX009 (ip), vehicle: saline sonified",118 % of control
same,T/C,"dose: 37.5 mg/kg/injection, schedule: Q01DX009 (ip), vehicle: saline sonified",109 % of control
